Assay results reported in ChEMBL document CHEMBL1811808, “A mechanism-based potent sirtuin inhibitor containing Nε-thiocarbamoyl-lysine (TuAcK)” (Bioorg Med Chem Lett, 2011).
Calls of active or inactive are those of the source. The calls are words filed in the database; no cut-off is given here. Square brackets hold non-standard residues; d marks the D form. Peptide text beside a SMILES is read from it. Asu = N[C@@H](CCCCCC(=O)O)C(=O)O

What was measured:
[1] = target: T1, NAD-dependent protein deacetylase sirtuin-1 (Homo sapiens, UniProt Q96EB6); assay: Inhibition of human GST-tagged SIRT1 using H2NHK-AcK-LM-COOH as substrate assessed as enzymatic deacetylation product formation after 5 mins by HPLC analysis
T1 sequence (Q96EB6 whole entry): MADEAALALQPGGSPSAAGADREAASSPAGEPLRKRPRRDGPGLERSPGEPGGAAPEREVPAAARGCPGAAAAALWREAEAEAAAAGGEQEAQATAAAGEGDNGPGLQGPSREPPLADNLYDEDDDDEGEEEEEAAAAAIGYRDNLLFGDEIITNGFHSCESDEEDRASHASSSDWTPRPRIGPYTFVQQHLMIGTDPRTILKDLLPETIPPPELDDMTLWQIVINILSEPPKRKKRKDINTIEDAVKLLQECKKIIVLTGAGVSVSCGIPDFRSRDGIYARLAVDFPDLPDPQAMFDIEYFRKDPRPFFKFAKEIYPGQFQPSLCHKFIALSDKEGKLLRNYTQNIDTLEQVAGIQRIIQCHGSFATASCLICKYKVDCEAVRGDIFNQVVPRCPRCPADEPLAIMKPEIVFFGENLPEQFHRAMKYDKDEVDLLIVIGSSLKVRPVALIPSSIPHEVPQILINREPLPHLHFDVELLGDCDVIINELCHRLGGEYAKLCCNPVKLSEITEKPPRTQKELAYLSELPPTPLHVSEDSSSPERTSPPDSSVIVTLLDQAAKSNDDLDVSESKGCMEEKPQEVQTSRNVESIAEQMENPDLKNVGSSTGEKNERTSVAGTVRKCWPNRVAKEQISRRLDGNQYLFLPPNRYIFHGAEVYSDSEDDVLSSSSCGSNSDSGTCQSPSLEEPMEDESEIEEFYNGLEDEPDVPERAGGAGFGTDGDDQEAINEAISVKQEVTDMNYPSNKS

[2] = target: T2, NAD-dependent protein deacetylase sirtuin-2 (Homo sapiens, UniProt Q8IXJ6); assay: Inhibition of human full length SIRT2 using H2N-MPSD-AcK-TIGG-COOH as substrate assessed as enzymatic deacetylation product formation after 60 mins by HPLC analysis
T2 sequence (Q8IXJ6 whole entry): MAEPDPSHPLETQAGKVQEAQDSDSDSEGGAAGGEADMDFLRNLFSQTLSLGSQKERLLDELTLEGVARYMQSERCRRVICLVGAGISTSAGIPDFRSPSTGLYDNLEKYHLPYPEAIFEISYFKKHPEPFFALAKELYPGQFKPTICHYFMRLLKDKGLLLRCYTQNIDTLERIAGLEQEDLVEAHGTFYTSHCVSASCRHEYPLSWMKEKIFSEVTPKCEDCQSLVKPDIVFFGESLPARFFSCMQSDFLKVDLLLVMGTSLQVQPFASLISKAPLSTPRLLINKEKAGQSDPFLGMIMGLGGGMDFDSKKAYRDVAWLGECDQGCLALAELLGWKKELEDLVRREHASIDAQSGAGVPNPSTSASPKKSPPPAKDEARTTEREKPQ

[3] = target: T3, NAD-dependent protein deacetylase sirtuin-1 (Homo sapiens) (UniProt Q96EB6); assay: Activity at SIRT1 assessed as formation of alkylamidate intermediate of compound at 0.6 mM after 1 min by MALDI-MS analysis in presence of NAD+
T3 sequence (whole entry): T1 sequence (Q96EB6 whole entry)

[4] = target: T3, NAD-dependent protein deacetylase sirtuin-1 (Homo sapiens); assay: Inhibition of SIRT1 in human HCT116 cells expressing wild type p53 assessed as increase in p53 acetylation at K382 after 10 hr by Western blot analysis; details: HCT-116

| IC50 [1] [µM] | IC50 [2] [µM] | Activity [3] | inhibition [4] | SMILES |
| --- | --- | --- | --- | --- |
| 290 | 190 |  |  | CC(=O)NCCCC[C@H](NC(=O)[C@H](CCCCCC(N)=O)NC(=O)[C@H](CCCCNC(C)=O)NC(C)=O)C(N)=O (Ac-Lys(Ac)-[Asu](NH2)-Lys(Ac)-NH2) |
| 89.5 |  | Active | Dose-dependent effect | CC(=O)NCCC[C@H](NC(=O)[C@H](CCCCNC(N)=S)NC(=O)[C@H](CCCNC(C)=O)NC(C)=O)C(N)=O |
